# Ends that are not written are not given here.
# How the values were obtained:
# [1] = test system: EAE; test: EAE in animal models (summary statements); format: in vivo; settings: unconjugated peptide
# Procedure: (§1) Groups of female animals (age range 6-10 week old C57BL/6 or SJL/J mice and 12-15 week old Lewis rats) were immunized intra-dermally with 100 μl solution containing 30 μg peptide (MOG35-55) or 50 μg PLP139-151 peptide for mice and 30 μg MBP83-99 for Lewis rats) conjugated to 70 μg oxidized or reduced mannan diluted in bi-carbonate buffer, pH 9.0. As controls, age matched groups of animals were vaccinated with oxidized or reduced mannan alone, saline or 30-50 μg of peptide alone. Three consecutive vaccinations were performed spaced 15 days apart. Fifteen days after the last vaccination EAE was induced.
# [2] = test system: MOG35-55-EAE; test: Prophylactic vaccination before MOG35-55-EAE induction, clinical score and body weight; format: in vivo, C57BL/6 mice; settings: for protection from MOG35-55-EAE development (clinical score): three vaccinations 15 days apart, EAE induced 15 days after the last, FIG. 1
# [3] = test system: splenocytes; test: T cell priming and proliferation assay, [3H]-thymidine incorporation, ex vivo MOG35-55 recall; format: cell-based, C57BL/6 mice; settings: day 25 post EAE induction, versus mannan alone or PBS; FIGS. 7 and 8
# Procedure: Isolated splenocytes were cultured for 72 h in 96-well plates in RPMI 1640 (Invitrogen Life Technologies, Gaithersburg, Md.) containing 10% heat-inactivated FCS, 50 μM 2-ME, and increasing concentrations of MOG35-55 peptide. Cells were stimulated in triplicate at 2×10^6 cells/ml in round-bottom, 96-well plates (Costar). Cells were pulsed with 1 μCi/5×10^5 cells [^3H]-thymidine in triplicate (Amersham Radiochemicals) for the last 16 h of culture. [^3H]-thymidine incorporation was measured by liquid scintillation counting (Wallac, Turku, Finland). Results are expressed as the stimulation index (ratio between radioactivity counts of cells cultured in presence of peptide and cells cultured with media alone).
# [4] = test system: splenocytes; test: Cytokines in splenocyte culture supernatants (cytometric bead array, IL-17 ELISA); format: cell-based, C57BL/6 mice; settings: 10 μg/ml MOG35-55, day 25 post EAE induction; FIG. 9
# Source text: The mouse Th1/Th2 cytokine cytometric bead array kit (BD Biosciences) was used to measure cytokine levels in culture supernatants according to the manufacturer's instructions. The cytokines measured with this kit were: IL-2, IL-4, IL-5, IFN-γ and TNF-α. In addition a mouse IL-17 ELISA set (R&D Systems, Germany) was used to measure cytokine secretion from splenocyte cell culture supernatants according to manufacturer's instructions. The sensitivity of the assay for different cytokines was as follows: IL-2, IL-4 and IL-5=5.0 pg/ml; IFN-γ=2.5 pg/ml; TNF-α=6.3 pg/ml.
# [5] = test system: MOG35-55-EAE; test: Histopathological analysis of spinal cord and brain after MOG35-55-EAE induction; format: in vivo, C57BL/6 mice
# [6] = test system: PLP139-151-EAE; test: Prophylactic vaccination before PLP139-151-EAE induction, clinical score; format: in vivo, SJL/J mice; settings: FIG. 10; for clinical score (peak): 6-grade scale, 0.5 = weight loss
# Procedure: as §1
# EAE was induced in SJL/J mice using a standard protocol. 150 μg of PLP139-151 was dissolved in PBS and emulsified in an equal volume of CFA (containing […] of heat killed Mycobacterium Tuberculosis HR37a, Sigma). On Day 0 (day of disease induction), one s.c injection was given by injecting 150 μg PLP139-151/200 μl per mouse in both of the flanks. Each mouse also received 400 ng pertussis toxin (Sigma, P2980) (i.p) dissolved in 200 μl PBS. On day 2, mice were received a booster of pertussis toxin (200 ng pertussis toxin dissolved in 200 μl PBS per mouse) Animals were daily evaluated for clinical signs of disease, starting from day 1 post immunisation, using a 6-grade clinical scale: 0, normal animal; 0.5, weight loss; 1, inability to elevate the tail above the horizontal level, tail weakness; 2, tail paralysis; 3, tail paralysis/hind limb paresis; 4, hind limb paralysis/forelimb weakness; 5, quadriplegia/moribund; 6, death from EAE. Moreover, animals were daily weighted throughout the entire experimental period.
# [7] = 24 days after EAE induction, FIG. 5
substance,measurement,setting,value
H-Glu-Asn-Pro-Val-Val-His-Phe-Phe-Lys-Asn-Ile-Val-Thr-Pro-Arg-Thr-Pro-OH (H-ENPVVHFFKNIVTPRTP-OH) [MBP83-99],induction of EAE by the linear peptide,[1],induce EAE
H-His-Ser-Leu-Gly-Lys-Trp-Leu-Gly-His-Pro-Asp-Lys-Phe-OH (H-HSLGKWLGHPDKF-OH) [PLP139-151],induction of EAE by the linear peptide,[1],induce EAE
"H-Met-Glu-Val-Gly-Trp-Tyr-Arg-Pro[Ser]-Pro-Phe-Ser-Arg-Val-Val-His-Leu-Tyr-Arg-Asn-Gly-Lys-OH [MOG35-55, reference compound]",disease course after day 20 of disease progression,"[2]; after day 20, FIGS. 3 and 4",exacerbated
same,EAE compared to non vaccinated controls at initial stages of disease,"[2]; initial stages, FIGS. 3 and 4",significantly lower
same,susceptibility to MOG-EAE after vaccination with peptide alone,"[2]; three prior challenges with unconjugated peptide, FIGS. 3 and 4",still susceptible to MOG-EAE
same,delay of EAE initiation,"[2]; versus non-vaccinated controls, FIGS. 3 and 4",3 days
same,proliferation of splenocytes,[3],did not show a reduction
same,induction of EAE by the linear peptide,[1],induce EAE
"oxidized mannan-MOG35-55: MOG35-55 peptide with a [(Lys-Gly)5] bridge conjugated to oxidized mannan via Schiff base formation (MEVGWYRSPFSRVVHLYRNGK; also: (Lys-Gly)5 bridge, site not given here, conjugated to oxidized mannan via Schiff base; UniProt Q61885 63-83, looked up, fragment)",amount of IL-17 secreted by MOG35-55 specific T cells,[4],reduction
same,"levels of Th1 cytokines (IFN-γ, TNF-α, IL-2)",[4],reduction
same,wasting symptoms (daily weight measurement),[2]; FIG. 2,absence of wasting symptoms
same,protection from MOG35-55-EAE development (clinical score),[2],significant protection
same,protection from MOG35-55-EAE development (clinical score),[2]; listed as MOG35-55 peptide conjugated to oxidized mannan,greatest degree of protection
same,proliferation of splenocytes,[3],Significant reduced proliferation
same,demyelinating lesions in the spinal cord,[5]; [7],no demyelinating lesions
same,inflammatory infiltration in the spinal cord,[5]; [7],little inflammatory infiltration
same,"inflammatory and demyelination index, brain and spinal cord","[5]; individual mice, FIG. 6",marked reduction
oxidized mannan-PLP139-151: PLP139-151 peptide with a [(Lys-Gly)5] bridge conjugated to oxidized mannan via Schiff base formation,clinical score (peak),[6],0.5
same,induction of / protection from PLP139-151-EAE,[6],did not induce EAE
same,induction of / protection from PLP139-151-EAE,[6]; listed as PLP139-151-oxidized mannan,completely protected
"reduced mannan-MOG35-55: MOG35-55 peptide with a [(Lys-Gly)5] bridge conjugated to mannan, reduced with sodium borohydride (MEVGWYRSPFSRVVHLYRNGK; also: (KG)5 bridge, site not given here, conjugated to mannan, reduced with sodium borohydride; UniProt Q61885 63-83, looked up, fragment)",amount of IL-17 secreted by MOG35-55 specific T cells,[4],reduction
same,"levels of Th1 cytokines (IFN-γ, TNF-α, IL-2)",[4],reduction
same,protection from MOG35-55-EAE development (clinical score),[2],significant protection
same,protection from MOG35-55-EAE development (clinical score),[2]; listed as MOG35-55 peptide conjugated to reduced mannan,significant inhibition from disease manifestation
same,proliferation of splenocytes,[3],Significant reduced proliferation
same,extent of lymphocyte infiltration and demyelination (overall protective effect),[5]; [7],Intermediate protective effects
"reduced mannan-PLP139-151: PLP139-151 peptide with a [(Lys-Gly)5] bridge conjugated to mannan, reduced with sodium borohydride",clinical score (peak),[6],0.5
same,induction of / protection from PLP139-151-EAE,[6],did not induce EAE

# — patent US9180174B2, “Conjugates comprising mannan and myelin oligodentrocyte glycoprotein (MOG)” (priority 2008, dated 2015)
